What all share (conditions): incubation time: 72 h
The test system of test [1] is CAL-148. The test is described as follows: normalised viability (% of control), CellTiter-Blue; higher = more viable cells (about 100 = DMSO control). The protocol: (§1)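 DSRT, CellTiter-Blue viability, 72 h incubation. Signal is normalised to DMSO and benzethonium chloride controls. Value is the normalised response at dose 9.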
Background: The colour change of resazurin is a common sign of viable cells or microbes.

In test [2] the test system is CAL-51. The description is as above. The protocol:
as §1

The test system of test [3] is CAL-85-1. The test is described as above. The protocol:
as §1

The subject of test [4] is DU-4475. The test is described as above. The protocol: as §1
For test [5], the system named is HDQ-P1. The description is as above. The protocol:
as §1

Test [6] concerns MDA-MB-453. Described as above. The protocol: as §1
Another test has as its system BT-474. The test is described as follows: normalised response (% of control), CellTiter-Glo; higher = more viable cells (100 = DMSO, 0 = benzethonium chloride kill control). In a few lines: (§2)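 Breast cancer cell lines (20 µl suspension) were seeded into 384-well plates holding compound at 5 concentrations in 10-fold steps over a compound-specific 10,000-fold range, then incubated 72 h. CellTox Green fluorescence (485/520 nm) was read first, then CellTiter-Glo luminescence after 10 min at room temperature. Each plate was normalised to 0.1 % DMSO (100) and a positive kill control (0). Each value is the normalised signal at a single concentration of the series.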

The test system of test [7] is BT-549. The test is described as above. In a few lines:
as §2

Test [8] has as its system CAL-120. Described as above. In a few lines: as §2
Test [9] relates to CAL-148. The description is as above. In a few lines: as §2
For test [10], the system named is CAL-51. Described as above. In a few lines:
as §2

Test [11] deals with CAL-85-1. Described as above. In a few lines: as §2
Test [12] deals with DU-4475. Described as above. In a few lines:
as §2

The subject of test [13] is HCC1143. Described as above. In a few lines: as §2
Test [14] deals with HCC1599. The description is as above. In a few lines: as §2
Test [15] relates to HCC1937. Described as above. In a few lines:
as §2

The subject of test [16] is HDQ-P1. Described as above. In a few lines:
as §2

Test [17] concerns Hs578T. Described as above. In a few lines:
as §2

In a further test the test system is MCF-10A. Described as above. In a few lines:
as §2

Test [18] relates to MDA-MB-231. The description is as above. In a few lines: as §2
For test [19], the system named is MDA-MB-436. Described as above. In a few lines:
as §2

Test [20] deals with MDA-MB-453. The test is described as above. In a few lines:
as §2

Test [21] relates to MDA-MB-468. The description is as above. In a few lines: as §2
For test [22], the system named is MFM-223. The test is described as above. In a few lines:
as §2

In test [23] the test system is SK-BR-3. The test is described as above. In a few lines:
as §2

The test system of test [24] is BT-549. The experiment in a line: normalised viability (% of control), CellTiter-Blue; higher = more viable cells (100 = DMSO, 0 = benzethonium chloride kill control). The protocol: (§3)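 DSRT, CellTiter-Blue viability, 72 h incubation. Signal is normalised to DMSO and benzethonium chloride controls. Value is the normalised response at dose 1.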
Test [25] has as its system CAL-120. The description is as above. The protocol: as §3
Test [26] concerns CAL-148. The test is described as above. The protocol:
as §3

Test [27] deals with CAL-51. Described as above. The protocol: as §3
The subject of test [28] is CAL-85-1. The test is described as above. The protocol: as §3
Test [29] relates to DU-4475. The description is as above. The protocol:
as §3

The subject of test [30] is HCC1143. The test is described as above. The protocol:
as §3

For test [31], the system named is HCC1599. The description is as above. The protocol:
as §3

The test system of test [32] is HCC1937. The description is as above. The protocol: as §3
Test [33] has as its system HDQ-P1. The description is as above. The protocol:
as §3

For test [34], the system named is Hs578T. The test is described as above. The protocol: as §3
Test [35] relates to MDA-MB-231. The description is as above. The protocol:
as §3

Test [36] has as its system MDA-MB-436. The test is described as above. The protocol:
as §3

For test [37], the system named is MDA-MB-453. The test is described as above. The protocol:
as §3

Test [38] deals with MDA-MB-468. The test is described as above. The protocol:
as §3

Test [39] concerns MFM-223. The test is described as above. The protocol: as §3
For test [40], the system named is SK-BR-3. The description is as above. The protocol:
as §3

Test [41] concerns CAL-148. The test is described as follows: normalised viability (% of control), CellTiter-Blue; higher = more viable cells (about 100 = DMSO control). The protocol: (§4)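 DSRT, CellTiter-Blue viability, 72 h incubation. Signal is normalised to DMSO and benzethonium chloride controls. Value is the normalised response at dose 6.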
The source holds these as a separate data set.

Test [42] deals with CAL-51. Described as above. The protocol:
as §4
The source holds these as a separate data set.

For test [43], the system named is CAL-85-1. Described as above. The protocol: as §4
This is another data set of the same source.

The subject of test [44] is DU-4475. Described as above. The protocol: as §4
The source holds these as a separate data set.

Test [45] concerns HDQ-P1. The test is described as above. The protocol: as §4
The source holds these as a separate data set.

Test [46] relates to MDA-MB-453. Described as above. The protocol:
as §4
The source holds these as a separate data set.

Values joined by “and” are separate entries in the source; they are usually repeats but may differ in a detail not shown here. Identical values can stand only once.

Consider `C=CCN(/C=C1/C(=O)O[C@H](COC)[C@@]2(C)C1=C(O)C(=O)C1=C2[C@H](OC(C)=O)C[C@]2(C)C(=O)CC[C@@H]12)CC=C` [PX-866] (10000 nM), for which the normalised viability in the test with CAL-148 [1] turned out to be 112%; with CAL-51 [2], 97.8%; with CAL-85-1 [3] it was 88.9%; with DU-4475 [4], 88%; in the test on HDQ-P1 [5], 53.2%; in the test with MDA-MB-453 [6], 70.2%.
Consider `O=C(CCCCCCC(=O)Nc1ccccc1)NO` [Vorinostat] (1 nM), for which the normalised response is 93.1% in the test with BT-474; 108% with BT-549 [7]; 95.9% in the test on CAL-120 [8]; 102% in the test on CAL-148 [9]; 80.8% with CAL-51 [10]; 104% in the test with CAL-85-1 [11]. The normalised response in the test with DU-4475 [12] came out at 98.4%; in the test with HCC1143 [13], 91.1%; in the test with HCC1599 [14], 94.1%; in the test on HCC1937 [15], 99%; with HDQ-P1 [16], 104%; with Hs578T [17] it was 97.5%. For the same molecule, the normalised response was determined as 92.1% with MCF-10A; 94.8% in the test on MDA-MB-231 [18]; 98.3% in the test with MDA-MB-436 [19]; 97.9% with MDA-MB-453 [20]; 96% in the test with MDA-MB-468 [21]; 102% with MFM-223 [22]. Also, the normalised response in the test with SK-BR-3 [23] is 88%. The normalised viability in the test with BT-549 [24] was 94.4% and 117%; in the test on CAL-120 [25], 83.4% and 95.8%; in the test with CAL-148 [26], 89.8% and 101%; in the test on CAL-51 [27], 103% and 96%; with CAL-85-1 [28], 91.5% and 104%; in the test with DU-4475 [29], 100% and 106%. Further, the normalised viability with HCC1143 [30] is 94.7% and 100%; in the test with HCC1599 [31] it was 97.8% and 94.4%; in the test with HCC1937 [32], 102% and 89.7%; in the test with HDQ-P1 [33] it was 84.8% and 99.5%; with Hs578T [34] it was 108% and 97.3%; in the test on MDA-MB-231 [35], 89.6% and 94.1%. The normalised viability is 101% and 100% in the test with MDA-MB-436 [36]; 106% in the test on MDA-MB-453 [37]; 109% in the test on MDA-MB-468 [38]; 90% and 100% in the test on MFM-223 [39]; 89.7% and 91.5% in the test on SK-BR-3 [40].
In the case of `CN(Cc1cnc2nc(N)nc(N)c2n1)c1ccc(C(=O)N[C@@H](CCC(=O)O)C(=O)O)cc1` [Methotrexate] (300 nM), the normalised viability is 66.8% in the test on CAL-148 [41]; 48.6% in the test on CAL-51 [42]; 68.7% in the test with CAL-85-1 [43]; 110% in the test with DU-4475 [44]; 69% in the test on HDQ-P1 [45]; 95.2% with MDA-MB-453 [46].
In the case of `CCNC(=O)c1noc(-c2cc(C(C)C)c(O)cc2O)c1-c1ccc(CN2CCOCC2)cc1` [NVP-AUY922] (30 nM), the normalised viability amounted to 16% in the test with CAL-148 [41]; 29.4% in the test on CAL-51 [42]; 30.5% with CAL-85-1 [43]; 0.85% with DU-4475 [44]; 18% in the test with HDQ-P1 [45]; 9.09% in the test with MDA-MB-453 [46].
